Patent US10117430B2, “Malononitrile compounds for controlling animal pests” (BASF SE, priority 2012, dated 2018)

How the values were obtained:
Assay type in all cases: in vivo
[1] = system: Green Peach Aphid (Myzus persicae); assay: B.3 Green peach aphid systemic test, artificial diet under membrane; details: 72 h, concentration of the test solution 2500 mg/L, 3 days
From the text: B.3 Green Peach Aphid (Myzus persicae)
For evaluating control of green peach aphid (Myzus persicae) through systemic means the test unit consisted of 96-well-microtiter plates containing liquid artificial diet under an artificial membrane. The compounds were formulated using a solution containing 75% v/v water and 25% v/v DMSO. Different concentrations of formulated compounds were pipetted into the aphid diet, using a custom built pipetter, at two replications. After application, 5-8 adult aphids were placed on the artificial membrane inside the microtiter plate wells. The aphids were then allowed to suck on the treated aphid diet and incubated at about 23±1° C. and about 50±5% relative humidity for 3 days. Aphid mortality and fecundity was then visually assessed.

[2] = system: Rice brown plant hopper (Nilaparvata lugens); assay: B.11 Rice brown plant hopper test on sprayed rice seedlings; details: in comparison with untreated controls, after 72 hours
Protocol: B.11 Rice brown plant hopper (Nilaparvata lugens)
Rice seedlings were cleaned and washed 24 hours before spraying. The active compounds were formulated in 50:50 acetone:water (vol:vol) and 0.1% vol/vol surfactant (EL 620) was added. Potted rice seedlings were sprayed with 5 ml test solution, air dried, placed in cages and inoculated with 10 adults. Treated rice plants were kept at about 28-29° C. and relative humidity of about 50-60%. Percent mortality was recorded after 72 hours.

[3] = system: Boll Weevil (Anthonomus grandis); assay: B.9 Boll weevil microtiter diet test, egg and larval mortality; details: 120 h, in comparison with untreated controls, egg and larval mortality after 5 days
Protocol: B.9 Boll Weevil (Anthonomus grandis)
For evaluating control of boll weevil (Anthonomus grandis) the test unit consisted of 24-well-microtiter plates containing an insect diet and 20-30 A. grandis eggs. The compounds were formulated using a solution containing 75% v/v water and 25% v/v DMSO. Different concentrations of formulated compounds were sprayed onto the insect diet at 20 μl, using a custom built micro atomizer, at two replications. After application, microtiter plates were incubated at about 23±1° C. and about 50±5% relative humidity for 5 days. Egg and larval mortality was then visually assessed.

[4] = system: Vetch Aphid (Megoura viciae); assay: B.7 Vetch aphid test on broad bean leaf disks; details: foliar, 120 h, in comparison with untreated controls, 5 days
Protocol: B.7 Vetch Aphid (Megoura viciae)
For evaluating control of vetch aphid (Megoura viciae) through contact or systemic means the test unit consisted of 24-well-microtiter plates containing broad bean leaf disks. The compounds were formulated using a solution containing 75% v/v water and 25% v/v DMSO. Different concentrations of formulated compounds were sprayed onto the leaf disks at 2.5 μl, using a custom built micro atomizer, at two replications. After application, the leaf disks were air-dried and 5-8 adult aphids placed on the leaf disks inside the microtiter plate wells. The aphids were then allowed to suck on the treated leaf disks and incubated at about 23±1° C. and about 50±5% relative humidity for 5 days. Aphid mortality and fecundity was then visually assessed.

[5] = system: Cowpea Aphid (Aphis craccivora); assay: B.1 Cowpea aphid spray test on potted cowpea plants; details: in comparison with untreated controls, population reduction assessed after 24, 72 and 120 hours
Protocol: B.1 Cowpea Aphid (Aphis craccivora)
The active compounds were formulated in 50:50 (v/v) acetone:water. The test solution was prepared at the day of use. Potted cowpea plants colonized with approximately 100-150 aphids of various stages were sprayed after the pest population has been recorded. Population reduction was assessed after 24, 72, and 120 hours.

[6] = system: Yellow Fever Mosquito (Aedes aegypti); assay: whole plant or invertebrate; details: 48 h, in comparison with untreated controls, larval mortality after 2 days
Protocol: B.12 Yellow Fever Mosquito (Aedes aegypti)
For evaluating control of yellow fever mosquito (Aedes aegypti) the test unit consisted of 96-well-microtiter plates containing 200 μl of tap water per well and 5-15 freshly hatched A. aegypti larvae. The compounds or mixtures were formulated using a solution containing 75% water and 25% DMSO. Different concentrations of formulated compounds or mixtures were sprayed onto the insect diet at 2.5 μl, using a custom built micro atomizer, at two replications. After application, microtiter plates were incubated at 28±1° C., 80±5% relative humidity for 2 days. Larval mortality was then visually assessed.

[7] = system: Silverleaf Whitefly (Bemisia argentifolii); assay: B.5 Silverleaf whitefly test on sprayed cotton plants; details: 72 h, in comparison with untreated controls, 3 days after treatment
Protocol: B.5 Silverleaf Whitefly (Bemisia argentifolii)
The active compounds were formulated in cyclohexanone as a 10,000 ppm solution supplied in 1.3 ml ABgene® tubes. These tubes were inserted into an automated electrostatic sprayer equipped with an atomizing nozzle and they served as stock solutions for which lower dilutions were made in 50% acetone:50% water (v/v). A nonionic surfactant (Kinetic®) was included in the solution at a volume of 0.01% (v/v). Cotton plants at the cotyledon stage (one plant per pot) were sprayed by an automated electrostatic plant sprayer equipped with an atomizing spray nozzle. The plants were dried in the sprayer fume hood and then removed from the sprayer. Each pot was placed into a plastic cup and 10 to 12 whitefly adults (approximately 3-5 days old) were introduced. The insects were collected using an aspirator and 0.6 cm, nontoxic Tygon® tubing (R-3603) connected to a barrier pipette tip. The tip, containing the collected insects, was then gently inserted into the soil containing the treated plant, allowing insects to crawl out of the tip to reach the foliage for feeding. Cups were covered with a reusable screened lid (150-micron mesh polyester screen PeCap from Tetko, Inc.). Test plants were maintained in a growth room at 25° C. and 20-40% relative humidity for 3 days, avoiding direct exposure to fluorescent light (24 hour photoperiod) to prevent trapping of heat inside the cup. Mortality was assessed 3 days after treatment, compared to untreated control plants.

[8] = system: Green Soldier Stink Bug (Nezara viridula); assay: B.15 Green soldier stink bug test on sprayed soybean pods; details: 120 h, in comparison with untreated controls, after 5 days
Protocol: B.15 Green Soldier Stink Bug (Nezara viridula)
The active compound is dissolved at the desired concentration in a mixture of 1:1 (vol:vol) distilled water:aceteone. Surfactant (Kinetic HV) is added at a rate of 0.01% (vol/vol). The test solution is prepared at the day of use. Soybean pods were placed in microwavable plastic cups lined with moist filter paper and inoculated with ten 3rd instar N. viridula. Using a hand atomizer, an approximately 2 ml solution is sprayed into each cup. Treated cups were kept at about 28-29° C. and relative humidity of about 50-60%. Percent mortality was recorded after 5 days.

[9] = system: Orchid Thrips (Dichromothrips corbetti); assay: B.4 Orchid thrips floral-immersion test; details: 96 h, in comparison with untreated controls, after 4 days
Protocol: B.4 Orchid Thrips (Dichromothrips Corbetti)
Dichromothrips corbetti adults used for bioassay are obtained from a colony maintained continuously under laboratory conditions. For testing purposes, the test compound is diluted to a concentration of 300 ppm (wt compound: vol diluent) in a 1:1 mixture of acetone:water (vol:vol), plus 0.01% vol/vol Kinetic® surfactant. Thrips potency of each compound is evaluated by using a floral-immersion technique. Plastic petri dishes are used as test arenas. All petals of individual, intact orchid flowers are dipped into treatment solution and allowed to dry. Treated flowers are placed into individual petri dishes along with 10-15 adult thrips. The petri dishes are then covered with lids. All test arenas are held under continuous light and a temperature of about 28° C. for duration of the assay. After 4 days, the numbers of live thrips are counted on each flower, and along inner walls of each petri dish. The level of thrips mortality is extrapolated from pre-treatment thrips numbers.

[10] = system: Southern Armyworm (Spodoptera eridania); assay: B.6 Southern armyworm test on sprayed lima bean plants; details: 96 h, in comparison with untreated controls, 4 days after treatment
Protocol: B.6 Southern Armyworm (Spodoptera eridania)
The active compounds were formulated in cyclohexanone as a 10,000 ppm solution supplied in 1.3 ml ABgene® tubes. These tubes were inserted into an automated electrostatic sprayer equipped with an atomizing nozzle and they served as stock solutions for which lower dilutions were made in 50% acetone:50% water (v/v). A nonionic surfactant (Kinetic®) was included in the solution at a volume of 0.01% (v/v). Lima bean plants (variety Sieva) were grown 2 plants to a pot and selected for treatment at the 1st true leaf stage. Test solutions were sprayed onto the foliage by an automated electrostatic plant sprayer equipped with an atomizing spray nozzle. The plants were dried in the sprayer fume hood and then removed from the sprayer. Each pot was placed into perforated plastic bags with a zip closure. Ten to 11 armyworm larvae were placed into the bag and the bags zipped closed. Test plants were maintained in a growth room at 25° C. and 20-40% relative humidity for 4 days, avoiding direct exposure to fluorescent light (24 hour photoperiod) to prevent trapping of heat inside the bags. Mortality and reduced feeding were assessed 4 days after treatment, compared to untreated control plants.

[11] = system: Mediterranean Fruitfly (Ceratitis capitata); assay: B.2 Mediterranean fruitfly microtiter diet test, egg and larval mortality; details: 120 h, in comparison with untreated controls, egg and larval mortality after 5 days
Protocol: B.2 Mediterranean Fruitfly (Ceratitis capitata)
For evaluating control of Mediterranean fruitfly (Ceratitis capitata) the test unit consisted of microtiter plates containing an insect diet and 50-80 C. capitata eggs. The compounds were formulated using a solution containing 75% v/v water and 25% v/v DMSO. Different concentrations of formulated compounds were sprayed onto the insect diet at 5 μl, using a custom built micro atomizer, at two replications. After application, microtiter plates were incubated at about 28±1° C. and about 80±5% relative humidity for 5 days. Egg and larval mortality was then visually assessed.

[12] = system: Red Spider Mite (Tetranychus kanzawai); assay: B.10 Red spider mite test on sprayed cowpea beans; details: in comparison with untreated controls, 72 hours after treatment
Protocol: B.10 Red Spider Mite (Tetranychus kanzawai)
The active compound is dissolved at the desired concentration in a mixture of 1:1 (vol:vol) distilled water:acetone. Add surfactant (Alkamuls® EL 620) at the rate of 0.1% (vol/vol). The test solution is prepared at the day of use. Potted cowpea beans of 7-10 days of age were cleaned with tap water and sprayed with 5 ml of the test solution using air driven hand atomizer. The treated plants were allowed to air dry and afterwards inculated with 20 or more mites by clipping a cassava leaf section with known mite population. Treated plants were placed inside a holding room at about 25-27° C. and about 50-60% relative humidity. Percent mortality was assessed 72 hours after treatment.

N#CC(C#N)(Cc1ccc(C(F)(F)F)cn1)c1ccccc1 [II-4]
≥ 75%: mortality at 2500 µg/mL [1] | mortality at 300 ppm [2] | mortality at 2500 ppm [3] | mortality at 2500 ppm [4] | mortality at 500 ppm [5] | mortality at 2500 ppm [6] | mortality at 500 ppm [7] | mortality at 500 ppm [8] | mortality at 500 ppm [9]

N#CC(C#N)(Cc1ccc(C(F)(F)F)nn1)c1ccc(F)cc1 [II-14]
≥ 75%: mortality at 2500 µg/mL [1] | mortality at 2500 ppm [3] | mortality at 500 ppm [5] | mortality at 500 ppm [10]

N#CC(C#N)(Cc1ncc(C(F)(F)F)cn1)c1ccc(F)cc1 [II-17]
≥ 75%: mortality at 2500 ppm [3] | mortality at 2500 ppm [4] | mortality at 500 ppm [5] | mortality at 500 ppm [10] | mortality at 2500 ppm [6] | mortality at 500 ppm [7] | mortality at 500 ppm [9]

N#CC(C#N)(Cc1ccc(C(F)(F)F)nc1)c1cccc(F)c1 [II-19]
≥ 75%: mortality at 2500 ppm [3] | mortality at 2500 ppm [4] | mortality at 500 ppm [5] | mortality at 300 ppm [10] | mortality at 2500 ppm [6] | mortality at 500 ppm [7] | mortality at 500 ppm [8] | mortality at 2500 ppm [11] | mortality at 500 ppm [9]

N#CC(C#N)(Cc1cnc(C(F)(F)F)nc1)c1cccc(F)c1 [II-21]
≥ 75%: mortality at 300 ppm [2] | mortality at 2500 ppm [3] | mortality at 2500 ppm [4] | mortality at 500 ppm [5] | mortality at 2500 ppm [6] | mortality at 500 ppm [7] | mortality at 500 ppm [8] | mortality at 500 ppm [9]

C#Cc1ccc(C(C#N)(C#N)Cc2ccc(C(F)(F)F)cn2)cc1 [II-33]
≥ 75%: mortality at 500 ppm [12] | mortality at 500 ppm [9]

N#CC(C#N)(Cc1ccc(C(F)(F)F)cn1)c1cc(F)cc(F)c1 [II-38]
≥ 75%: mortality at 2500 µg/mL [1] | mortality at 300 ppm [2] | mortality at 2500 ppm [3] | mortality at 2500 ppm [4] | mortality at 500 ppm [5] | mortality at 300 ppm [10] | mortality at 2500 ppm [6] | mortality at 500 ppm [7] | mortality at 500 ppm [9]

N#CC(C#N)(Cc1ccc(C(F)(F)F)cn1)c1cc(F)c(F)c(F)c1 [II-48]
≥ 75%: mortality at 2500 µg/mL [1] | mortality at 300 ppm [2] | mortality at 2500 ppm [3] | mortality at 2500 ppm [4] | mortality at 2500 ppm [6] | mortality at 500 ppm [8] | mortality at 2500 ppm [11] | mortality at 500 ppm [9]

CC(c1ccc(C(F)(F)F)cn1)C(C#N)(C#N)c1cc(F)c(F)c(F)c1 (centres unmarked) [II-61]
≥ 75%: mortality at 2500 µg/mL [1] | mortality at 300 ppm [2] | mortality at 2500 ppm [3] | mortality at 2500 ppm [4] | mortality at 500 ppm [5] | mortality at 2500 ppm [6] | mortality at 500 ppm [8] | mortality at 2500 ppm [11] | mortality at 500 ppm [9]
